Assay results as given in paper PMC6930582, “Synthesis and Evaluation of Novel 2H-Benzo[e]-[1,2,4]thiadiazine 1,1-Dioxide Derivatives as PI3Kδ Inhibitors” (Molecules, 2019).
“Also recorded” adds a separate entry of the source. Read-outs that look alike come from different tables or passages of the source.

How the values were obtained:
PI3Kγ [1] = biological target: T1, PI3Kγ (Homo sapiens, UniProt P48736); test: PI3Kγ kinase assay (ADP-Glo luminescent assay); type: biochemical; conditions: mean ± SD from two separate experiments
T1 sequence (P48736 whole entry): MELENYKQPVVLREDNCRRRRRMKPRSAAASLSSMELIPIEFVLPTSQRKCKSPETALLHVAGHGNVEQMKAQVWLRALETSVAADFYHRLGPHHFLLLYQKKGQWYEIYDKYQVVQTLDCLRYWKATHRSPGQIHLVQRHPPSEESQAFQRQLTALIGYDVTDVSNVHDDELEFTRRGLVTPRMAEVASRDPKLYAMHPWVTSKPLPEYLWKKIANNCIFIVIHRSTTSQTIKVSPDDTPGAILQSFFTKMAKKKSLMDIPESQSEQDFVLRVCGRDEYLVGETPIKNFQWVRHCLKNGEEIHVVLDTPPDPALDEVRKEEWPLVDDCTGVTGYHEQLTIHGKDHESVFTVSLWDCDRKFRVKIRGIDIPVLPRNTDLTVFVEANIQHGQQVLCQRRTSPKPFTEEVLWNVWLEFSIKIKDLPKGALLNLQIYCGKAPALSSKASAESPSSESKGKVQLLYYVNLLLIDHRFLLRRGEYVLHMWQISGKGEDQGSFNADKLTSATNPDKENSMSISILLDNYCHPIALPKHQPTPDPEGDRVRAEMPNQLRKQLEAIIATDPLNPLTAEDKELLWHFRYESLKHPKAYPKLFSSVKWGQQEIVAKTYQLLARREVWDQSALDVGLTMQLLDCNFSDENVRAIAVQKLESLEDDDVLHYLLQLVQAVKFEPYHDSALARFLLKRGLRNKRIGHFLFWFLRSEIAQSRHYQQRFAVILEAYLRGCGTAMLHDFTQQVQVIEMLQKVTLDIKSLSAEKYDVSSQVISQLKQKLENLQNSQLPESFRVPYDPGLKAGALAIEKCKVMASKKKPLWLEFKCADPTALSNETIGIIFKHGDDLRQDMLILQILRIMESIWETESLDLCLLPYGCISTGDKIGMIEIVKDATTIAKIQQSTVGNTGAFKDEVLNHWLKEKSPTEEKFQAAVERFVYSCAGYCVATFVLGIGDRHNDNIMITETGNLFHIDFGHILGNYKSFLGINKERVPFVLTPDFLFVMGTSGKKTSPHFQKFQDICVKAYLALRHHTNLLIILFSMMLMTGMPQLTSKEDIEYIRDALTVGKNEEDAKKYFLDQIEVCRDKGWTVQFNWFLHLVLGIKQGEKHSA

PI3Kα [2] = biological target: T2, PI3Kα (Homo sapiens, UniProt P42336); test: PI3Kα kinase assay (kinase-Glo luminescent assay); type: biochemical; conditions: for IC50: kinase-Glo, mean ± SD from two separate experiments
T2 sequence (P42336 whole entry): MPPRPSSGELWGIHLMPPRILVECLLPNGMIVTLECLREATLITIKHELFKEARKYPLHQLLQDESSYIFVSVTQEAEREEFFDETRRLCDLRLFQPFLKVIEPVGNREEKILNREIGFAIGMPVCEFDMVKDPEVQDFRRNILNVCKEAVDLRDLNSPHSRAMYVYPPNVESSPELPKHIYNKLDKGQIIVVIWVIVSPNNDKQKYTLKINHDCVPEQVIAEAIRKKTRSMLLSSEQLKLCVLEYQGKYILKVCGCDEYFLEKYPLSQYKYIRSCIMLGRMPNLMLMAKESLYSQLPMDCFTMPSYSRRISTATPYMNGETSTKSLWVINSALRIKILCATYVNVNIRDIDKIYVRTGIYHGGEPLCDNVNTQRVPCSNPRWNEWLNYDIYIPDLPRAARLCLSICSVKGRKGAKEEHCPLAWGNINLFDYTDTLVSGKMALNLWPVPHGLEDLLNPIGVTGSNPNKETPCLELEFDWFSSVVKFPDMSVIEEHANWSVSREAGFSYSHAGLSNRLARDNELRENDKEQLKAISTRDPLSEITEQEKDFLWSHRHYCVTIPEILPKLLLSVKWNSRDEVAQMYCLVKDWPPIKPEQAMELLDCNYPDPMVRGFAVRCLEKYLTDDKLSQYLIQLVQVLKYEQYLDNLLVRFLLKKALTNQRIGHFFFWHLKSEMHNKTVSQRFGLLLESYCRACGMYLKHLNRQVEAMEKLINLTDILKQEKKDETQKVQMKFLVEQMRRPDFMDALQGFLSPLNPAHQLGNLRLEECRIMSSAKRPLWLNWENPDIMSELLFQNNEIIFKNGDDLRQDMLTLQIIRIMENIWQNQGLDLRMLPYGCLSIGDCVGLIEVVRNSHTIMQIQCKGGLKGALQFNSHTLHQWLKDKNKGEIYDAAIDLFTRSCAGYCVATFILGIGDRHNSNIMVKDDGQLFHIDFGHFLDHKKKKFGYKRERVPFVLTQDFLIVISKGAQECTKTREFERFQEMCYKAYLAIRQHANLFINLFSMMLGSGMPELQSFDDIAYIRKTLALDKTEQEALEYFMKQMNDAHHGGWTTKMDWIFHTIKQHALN
T2 sequence (P27986 whole entry partner): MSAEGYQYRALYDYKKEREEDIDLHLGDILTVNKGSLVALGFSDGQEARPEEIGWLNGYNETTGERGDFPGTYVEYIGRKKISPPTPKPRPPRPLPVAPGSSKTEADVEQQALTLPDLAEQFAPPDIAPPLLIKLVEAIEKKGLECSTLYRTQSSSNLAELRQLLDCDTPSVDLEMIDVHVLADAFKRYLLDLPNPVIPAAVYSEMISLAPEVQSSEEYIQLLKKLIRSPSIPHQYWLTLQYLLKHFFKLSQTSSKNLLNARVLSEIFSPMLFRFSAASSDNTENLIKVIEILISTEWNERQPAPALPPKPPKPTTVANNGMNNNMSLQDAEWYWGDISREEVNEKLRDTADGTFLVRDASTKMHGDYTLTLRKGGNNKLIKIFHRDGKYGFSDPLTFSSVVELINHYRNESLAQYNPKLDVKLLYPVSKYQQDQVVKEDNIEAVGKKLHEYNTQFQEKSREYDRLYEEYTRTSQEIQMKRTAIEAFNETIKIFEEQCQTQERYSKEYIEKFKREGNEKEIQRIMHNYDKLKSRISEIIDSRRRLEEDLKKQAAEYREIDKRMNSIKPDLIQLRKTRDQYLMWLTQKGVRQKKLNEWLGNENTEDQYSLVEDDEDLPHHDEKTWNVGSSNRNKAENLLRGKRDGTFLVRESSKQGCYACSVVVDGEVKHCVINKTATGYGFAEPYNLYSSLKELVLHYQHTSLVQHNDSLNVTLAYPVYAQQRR

PI3Kδ = PI3Kδ (Homo sapiens, UniProt O00329); test: PI3Kδ kinase assay (ADP-Glo luminescent assay); type: biochemical; conditions: for IC50: ADP-Glo, mean ± SD from two separate experiments, Table 1 and text, read-out: PI3Kδ inhibitory activity IC50; for PI3Kδ inhibitory activity (in words): qualitative statement; for decrease in PI3Kδ potency on introduction of 7-fluorine: compared with the non-fluorinated analogue
Sequence of PI3Kδ (O00329 whole entry): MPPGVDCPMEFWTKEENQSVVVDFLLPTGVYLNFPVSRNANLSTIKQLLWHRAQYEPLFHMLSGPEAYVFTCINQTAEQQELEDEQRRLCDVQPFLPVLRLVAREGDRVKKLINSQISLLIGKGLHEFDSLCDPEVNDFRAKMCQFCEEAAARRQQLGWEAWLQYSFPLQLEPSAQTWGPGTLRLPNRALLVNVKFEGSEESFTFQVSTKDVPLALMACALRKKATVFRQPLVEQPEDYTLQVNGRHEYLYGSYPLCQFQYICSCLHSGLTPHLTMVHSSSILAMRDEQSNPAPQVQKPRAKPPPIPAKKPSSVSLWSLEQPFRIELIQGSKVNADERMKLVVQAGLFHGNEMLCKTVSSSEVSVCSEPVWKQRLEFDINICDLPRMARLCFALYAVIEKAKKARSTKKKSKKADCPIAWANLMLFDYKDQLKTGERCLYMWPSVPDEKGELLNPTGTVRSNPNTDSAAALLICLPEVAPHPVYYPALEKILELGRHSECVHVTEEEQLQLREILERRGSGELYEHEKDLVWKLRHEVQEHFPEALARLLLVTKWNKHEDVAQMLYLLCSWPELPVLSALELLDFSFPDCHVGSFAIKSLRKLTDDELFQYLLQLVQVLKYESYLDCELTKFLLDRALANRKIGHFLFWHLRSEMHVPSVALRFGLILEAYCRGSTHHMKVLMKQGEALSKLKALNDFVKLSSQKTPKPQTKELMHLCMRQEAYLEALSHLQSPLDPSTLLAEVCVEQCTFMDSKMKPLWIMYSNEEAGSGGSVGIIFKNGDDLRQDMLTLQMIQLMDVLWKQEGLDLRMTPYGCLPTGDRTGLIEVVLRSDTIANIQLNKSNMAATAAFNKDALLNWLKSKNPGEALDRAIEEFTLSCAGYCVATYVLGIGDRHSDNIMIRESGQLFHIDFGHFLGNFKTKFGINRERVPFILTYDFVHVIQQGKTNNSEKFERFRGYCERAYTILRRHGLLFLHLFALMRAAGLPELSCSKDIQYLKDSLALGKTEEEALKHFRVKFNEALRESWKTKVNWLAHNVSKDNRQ
Sequence of PI3Kδ (P27986 whole entry partner): as the sequence (P27986 whole entry partner) above

SU-DHL-6 cells = test: SU-DHL-6 cell proliferation assay (CellTiter-Glo); type: cell-based, human; conditions: for GI50: Homo sapiens, SU-DHL-6 cell growth inhibition, CellTiter-Glo, mean ± SD from two separate experiments; for SU-DHL-6 cell proliferation inhibition (in words): qualitative statement
Procedure: The selective PI3Kδ inhibitors 15a and 15b were further evaluated for their antiproliferative activity against human B-cell SU-DHL-6.
Cell proliferation was evaluated by The CellTiter-Glo luminescent cell viability assay (Promega, Shanghai, China) was used to evaluate the inhibitory activity of compounds 15a and 15b following the manufacturer’s protocol. In brief, SU-DHL-6 (ATCC) cells were seeded in 96-well plates (Corning, Los Altos, MA, USA) at density of 1 × 10^4 cells per well, and incubated with medium alone or with the tested compounds at the indicated concentrations (50 μM in DMSO, 3-fold dilution, in duplicate for 10 concentrations). 50 μL CellTiter-Glo (Promega, Shanghai, China) reagent was added to each well to induce cell lysis, and the plate was incubated at room temperature for 10 min to stabilize luminescent signal. After 100 μL of the mixture from each well was transferred to a new 96-well black plate, the […] signal was read on EnVision (Shanghai, China) and the data were analysized by XLFit 4 software (IDBS, Berlin, Germany).

PI3Kβ [3] = biological target: T3, PI3Kβ (Homo sapiens, UniProt P42338); test: PI3Kβ kinase assay (ADP-Glo luminescent assay); type: biochemical; conditions: for IC50: ADP-Glo, mean ± SD from two separate experiments
T3 sequence (P42338 whole entry): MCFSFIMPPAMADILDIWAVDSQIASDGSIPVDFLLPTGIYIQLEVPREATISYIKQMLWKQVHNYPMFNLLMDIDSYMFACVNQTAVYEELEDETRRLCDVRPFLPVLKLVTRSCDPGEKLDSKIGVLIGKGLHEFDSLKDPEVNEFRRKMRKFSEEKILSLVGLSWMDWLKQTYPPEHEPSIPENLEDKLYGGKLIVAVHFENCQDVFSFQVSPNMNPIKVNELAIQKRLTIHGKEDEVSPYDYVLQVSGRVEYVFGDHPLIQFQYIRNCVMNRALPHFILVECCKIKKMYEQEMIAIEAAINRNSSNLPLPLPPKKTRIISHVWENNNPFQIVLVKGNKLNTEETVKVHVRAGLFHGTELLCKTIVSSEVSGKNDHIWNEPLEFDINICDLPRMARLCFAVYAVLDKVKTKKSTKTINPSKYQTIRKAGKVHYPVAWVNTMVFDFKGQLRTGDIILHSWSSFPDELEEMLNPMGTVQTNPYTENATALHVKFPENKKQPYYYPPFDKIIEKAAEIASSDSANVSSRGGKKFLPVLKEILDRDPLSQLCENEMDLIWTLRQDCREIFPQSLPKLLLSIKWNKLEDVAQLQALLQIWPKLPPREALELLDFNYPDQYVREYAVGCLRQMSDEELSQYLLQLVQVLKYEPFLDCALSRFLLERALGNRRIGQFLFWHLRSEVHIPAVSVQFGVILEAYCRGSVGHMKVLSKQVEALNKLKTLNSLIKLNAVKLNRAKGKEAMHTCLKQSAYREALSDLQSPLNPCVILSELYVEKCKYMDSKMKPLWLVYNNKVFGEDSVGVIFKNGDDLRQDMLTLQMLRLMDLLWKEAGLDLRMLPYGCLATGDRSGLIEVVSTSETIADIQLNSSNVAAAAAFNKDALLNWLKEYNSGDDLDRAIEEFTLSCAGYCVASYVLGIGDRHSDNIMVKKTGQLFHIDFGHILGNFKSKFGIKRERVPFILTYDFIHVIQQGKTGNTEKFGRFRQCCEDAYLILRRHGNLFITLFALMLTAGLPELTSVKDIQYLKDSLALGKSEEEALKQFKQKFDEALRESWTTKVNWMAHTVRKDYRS
T3 sequence (P27986 whole entry partner): as the sequence (P27986 whole entry partner) above

PI3Kα [4] = biological target: T2, PI3Kα; design: method as in PMID 29601991; conditions: quinazolinone leads, previous work; ref [33]; cited from earlier work
PI3Kβ [5] = biological target: T3, PI3Kβ; design: method as in PMID 29601991; conditions: quinazolinone leads, previous work; ref [33]; cited from earlier work
PI3Kγ [6] = biological target: T1, PI3Kγ; design: method as in PMID 29601991; conditions: quinazolinone leads, previous work; ref [33]; cited from earlier work

Row | IC50 (PI3Kδ) | melting point | Compound | PI3Kδ inhibitory activity (in words) (PI3Kδ) | other results
1 | 0.217 ± 0.028 µM |  | Cc1cccc(C)c1N1C(Cn2nc(-c3ccc4[nH]ccc4c3)c3c(N)ncnc32)=Nc2ccccc2S1(=O)=O [15a, 3-((4-Amino-3-(1H-indol-5-yl)-1H-pyrazolo[3,4-d]pyrimidin-1-yl)methyl)-2-(2,6-dimethylphenyl)-2H-benzo[e][1,2,4]thiadiazine 1,1-dioxide] |  | IC50 (PI3Kγ [1]): > 50 µM; IC50 (PI3Kα [2]): > 50 µM; GI50 (SU-DHL-6 cells): 2.13 ± 0.09 µM; SU-DHL-6 cell proliferation inhibition (in words) (SU-DHL-6 cells): significantly inhibited; also recorded: high antiproliferative potency; IC50 (PI3Kβ [3]): 30.6 ± 0.875 µM
2 | 0.266 ± 0.031 µM | 220 to 222 °C | COc1ccc(-c2nn(CC3=Nc4ccccc4S(=O)(=O)N3c3c(C)cccc3C)c3ncnc(N)c23)cc1OC [15b, 3-((4-Amino-3-(3,4-dimethoxyphenyl)-1H-pyrazolo[3,4-d]pyrimidin-1-yl)methyl)-2-(2,6-dimethylphenyl)-2H-benzo[e][1,2,4]thiadiazine 1,1-dioxide] |  | IC50 (PI3Kγ [1]): 5.84 ± 0.135 µM; IC50 (PI3Kα [2]): 16.4 ± 0.768 µM; selectivity for PI3Kδ over PI3Kα (PI3Kα [2]; ratio of IC50 values): more than 60 fold; GI50 (SU-DHL-6 cells): 2.5 ± 0.11 µM; SU-DHL-6 cell proliferation inhibition (in words) (SU-DHL-6 cells): significantly inhibited; also recorded: high antiproliferative potency; IC50 (PI3Kβ [3]): 24.2 ± 0.495 µM; selectivity for PI3Kδ over PI3Kβ (PI3Kβ [3]; ratio of IC50 values): > 90 fold
3 | > 1 µM | 225 to 226 °C | Cc1cccc(C)c1N1C(Cn2nc(-c3ccc4c(c3)OCCO4)c3c(N)ncnc32)=Nc2ccccc2S1(=O)=O [15e, 3-((4-Amino-3-(2,3-dihydrobenzo[b][1,4]dioxin-6-yl)-1H-pyrazolo[3,4-d]pyrimidin-1-yl)methyl)-2-(2,6-dimethylphenyl)-2H-benzo[e][1,2,4]thiadiazine 1,1-dioxide] | not tolerated | 
4 | > 1 µM | > 250 °C | Cc1cccc(C)c1N1C(Cn2nc(-c3ccc4c(c3)OCO4)c3c(N)ncnc32)=Nc2ccccc2S1(=O)=O [15f, 3-((4-Amino-3-(benzo[d][1,3]dioxol-5-yl)-1H-pyrazolo[3,4-d]pyrimidin-1-yl)methyl)-2-(2,6-dimethyl-phenyl)-2H-benzo[e][1,2,4]thiadiazine 1,1-dioxide] | not tolerated | 
5 | > 1 µM |  | COc1ccc(-c2nn(CC3=Nc4ccccc4S(=O)(=O)N3c3c(C)cccc3C)c3ncnc(N)c23)cc1 [15g, 3-((4-Amino-3-(4-methoxyphenyl)-1H-pyrazolo[3,4-d]pyrimidin-1-yl)methyl)-2-(2,6-dimethylphenyl)-2H-benzo[e][1,2,4]thiadiazine 1,1-dioxide] | not tolerated | 
6 | > 1 µM |  | COc1cccc(-c2nn(CC3=Nc4ccccc4S(=O)(=O)N3c3c(C)cccc3C)c3ncnc(N)c23)c1 [15h, 3-((4-Amino-3-(3-methoxyphenyl)-1H-pyrazolo[3,4-d]pyrimidin-1-yl)methyl)-2-(2,6-dimethylphenyl)-2H-benzo[e][1,2,4]thiadiazine 1,1-dioxide] | not tolerated | 
7 | > 1 µM | 206 to 207 °C | Cc1cccc(C)c1N1C(Cn2nc(-c3ccc(OC(F)(F)F)cc3)c3c(N)ncnc32)=Nc2ccccc2S1(=O)=O [15i, 3-((4-Amino-3-(4-(trifluoromethoxy)phenyl)-1H-pyrazolo[3,4-d]pyrimidin-1-yl)methyl)-2-(2,6-dimethyl-phenyl)-2H-benzo[e][1,2,4]thiadiazine 1,1-dioxide] | not tolerated | 
8 | > 1 µM |  | Cc1cccc(C)c1N1C(Cn2nc(-c3ccccc3)c3c(N)ncnc32)=Nc2ccccc2S1(=O)=O [15j, 3-((4-Amino-3-phenyl-1H-pyrazolo[3,4-d]pyrimidin-1-yl)methyl)-2-(2,6-dimethylphenyl)-2H-benzo[e]-[1,2,4]thiadiazine 1,1-dioxide] | not tolerated | 
9 | > 1 µM | 132 to 133 °C | Cc1cccc(C)c1N1C(Cn2nc(-c3ccc4[nH]ccc4c3)c3c(N)ncnc32)=Nc2ccc(F)cc2S1(=O)=O [16a, 3-((4-Amino-3-(1H-indol-5-yl)-1H-pyrazolo[3,4-d]pyrimidin-1-yl)methyl)-2-(2,6-dimethylphenyl)-7-fluoro-2H-benzo[e][1,2,4]thiadiazine 1,1-dioxide] | lost its activity | 
10 |  |  | CC[C@H](Nc1ncnc2[nH]cnc12)c1nc2cccc(F)c2c(=O)n1-c1ccccc1 [CAL-101, reference compound] |  | GI50 (SU-DHL-6 cells): 0.039 ± 0.011 µM
11 |  |  | Cc1cccc(C)c1-n1c(Cn2nc(-c3ccc4[nH]ccc4c3)c3c(N)ncnc32)nc2cccc(F)c2c1=O [compound 3] |  | selectivity for PI3Kδ over PI3Kα (PI3Kα [4]): more than 3630 fold; selectivity for PI3Kδ over PI3Kβ (PI3Kβ [5]): > 390 fold; selectivity for PI3Kδ over PI3Kγ (PI3Kγ [6]): > 40 fold
12 |  |  | COc1ccc(-c2nn(Cc3nc4cccc(F)c4c(=O)n3-c3c(C)cccc3C)c3ncnc(N)c23)cc1OC [compound 4] |  | selectivity for PI3Kδ over PI3Kα (PI3Kα [4]): more than 1400 fold; selectivity for PI3Kδ over PI3Kβ (PI3Kβ [5]): > 820 fold; selectivity for PI3Kδ over PI3Kγ (PI3Kγ [6]): 7 fold

Row | Compound | IC50 (PI3Kδ) | melting point | PI3Kδ inhibitory activity (in words) (PI3Kδ) | other results
13 | COc1ccc(-c2nn(CC3=Nc4ccccc4S(=O)(=O)N3c3c(C)cccc3C)c3ncnc(N)c23)cc1F [15c, 3-((4-Amino-3-(3-fluoro-4-methoxyphenyl)-1H-pyrazolo[3,4-d]pyrimidin-1-yl)methyl)-2-(2,6-dimethyl-phenyl)-2H-benzo[e][1,2,4]thiadiazine 1,1-dioxide] | 0.98 ± 0.045 µM |  | marginal activity | 
14 | COc1ccc(-c2nn(CC3=Nc4ccccc4S(=O)(=O)N3c3c(C)cccc3C)c3ncnc(N)c23)cn1 [15d, 3-((4-Amino-3-(6-methoxypyridin-3-yl)-1H-pyrazolo[3,4-d]pyrimidin-1-yl)methyl)-2-(2,6-dimethylphenyl)-2H-benzo[e][1,2,4]thiadiazine 1,1-dioxide] | 0.498 ± 0.033 µM |  |  | 
15 | COc1ccc(-c2nn(CC3=Nc4ccc(F)cc4S(=O)(=O)N3c3c(C)cccc3C)c3ncnc(N)c23)cc1OC [16b, 3-((A-amino-3-(3,4-dimethoxyphenyl)-1H-pyrazolo[3,4-d]pyrimidin-1-yl)methyl)-2-(2,6-dimethylphenyl)-7-fluoro-2H-benzo[e][1,2,4]thiadiazine 1,1-dioxide] | 0.518 ± 0.062 µM | 229 to 230 °C |  | decrease in PI3Kδ potency on introduction of 7-fluorine (PI3Kδ): ~2 fold
16 | COc1ccc(-c2nn(CC3=Nc4ccc(F)cc4S(=O)(=O)N3c3c(C)cccc3C)c3ncnc(N)c23)cc1F [16c, 3-((4-Amino-3-(3-fluoro-4-methoxyphenyl)-1H-pyrazolo[3,4-d]pyrimidin-1-yl)methyl)-2-(2,6-dimethyl-phenyl)-7-fluoro-2H-benzo[e][1,2,4]thiadiazine 1,1-dioxide] | 0.824 ± 0.076 µM | 201 to 202 °C | slight increase in potency | 
17 | COc1ccc(-c2nn(CC3=Nc4ccc(F)cc4S(=O)(=O)N3c3c(C)cccc3C)c3ncnc(N)c23)cn1 [16d, 3-((4-Amino-3-(6-methoxypyridin-3-yl)-1H-pyrazolo[3,4-d]pyrimidin-1-yl)methyl)-2-(2,6-dimethylphenyl)-7-fluoro-2H-benzo[e][1,2,4]thiadiazine 1,1-dioxide] | 0.823 ± 0.069 µM |  |  | decrease in PI3Kδ potency on introduction of 7-fluorine (PI3Kδ): ~2 fold
